The target in assay [1] is T1, human recombinant bradykinin B1 receptor (Homo sapiens, UniProt P46663).
T1 construct: host or cells: CHO cells, clone hB1-A5
T1 sequence (P46663 1-353): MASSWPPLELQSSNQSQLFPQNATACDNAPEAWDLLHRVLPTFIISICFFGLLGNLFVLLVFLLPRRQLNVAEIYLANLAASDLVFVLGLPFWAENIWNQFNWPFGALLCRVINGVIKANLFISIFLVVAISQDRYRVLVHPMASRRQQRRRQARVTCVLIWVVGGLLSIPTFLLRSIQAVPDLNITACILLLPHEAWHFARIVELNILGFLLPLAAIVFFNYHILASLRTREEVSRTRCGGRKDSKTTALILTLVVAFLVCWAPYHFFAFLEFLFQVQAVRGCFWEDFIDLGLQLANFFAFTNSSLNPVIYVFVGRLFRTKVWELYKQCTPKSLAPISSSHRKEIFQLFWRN
In words: Human recombinant bradykinin B1 receptor competitive radioligand binding. Summed up:
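Competition radioligand binding on CHO-expressed hB1 membranes, using [3,4-prolyl-3,4-^3H(N)]-[Des-Arg^10] Kallidin as tracer, 15 min at 25° C. Excess Lys-des-Arg^9-Bradykinin (10 μM) set nonspecific binding. Sigmoidal fits of at least seven concentrations gave IC50, converted to Ki via Cheng-Prusoff; KD from Scatchard.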

For assay [2], the target named is T2, recombinant human B1 receptors (Homo sapiens, UniProt P46663).
T2 construct: host or cells: CHO (CHO-B1)
T2 sequence (P46663 1-353): T1 sequence (P46663 1-353)
Kind of assay: Functional assay: antagonist potency by cytosolic calcium measurement (plate reader fluorimeter) in CHO-B1 cells, agonist LysDABK. It is filed as cell-based. The gist of the method:
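IC50 is the concentration giving half-maximal inhibition of the LysDABK (EC80) calcium response, fitted from at least three experiments. CHO cells stably expressing human B1 were dye-loaded, exposed to compound for 20-25 min, then read by fluo-4 fluorescence (ΔF/F) at 37 °C.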

Where [3] appears, read: hB1 expressed in CHO cells, [3H]-[Des-Arg10] Kallidin radioligand, read-out: B1 binding.
The mark [4] stands for this setting: CHO-B1 cells, inhibition of LysDABK (EC80)-evoked [Ca2+]i elevation, read-out: B1 func.

Read-outs that look alike come from different tables or passages of the source.

The results in this text go back to patent US20130217702A1 (Richter Gedeon Nyrt., priority 2010, published 2013).

Consider `Cn1nnc(-c2c(Cl)c3ccccc3n2-c2ccc(CNC(=O)C3(NC(=O)c4ccnc(F)c4)CC3)cc2)n1` [Example 28, N-(1-{4-[3-chloro-2-(2-methyl-2H-tetrazol-5-yl)-indol-1-yl]-benzylcarbamoyl}-cyclopropyl)-2-fluoro-isonicotinamide], for which the Ki in assay [1] (setting [3]) was under 20 nM. Also, in assay [2] (setting [4]), the IC50 is under 20 nM.

In the case of `COC(=O)c1c(Cl)c2ccccc2n1-c1ccc(CNC(=O)C2(NC(=O)C(F)(F)F)CC2)c(F)c1` [Example 54, 3-Chloro-1-[3-fluoro-4-({[1-(2,2,2-trifluoro-acetylamino)-cyclopropanecarbonyl]-amino}-methyl)-phenyl]-1H-indole-2-carboxylic acid methyl ester], the Ki in assay [1] (setting [3]) is under 20 nM. Further, the IC50 in assay [2] (setting [4]) was under 20 nM.

As to `Cn1nnc(-c2c(Cl)c3ccccc3n2-c2ccc(CNC(=O)C3(NC(=O)C(F)(F)F)CC3)c(F)c2)n1` [Example 4, 1-(2,2,2-Trifluoro-acetylamino)-cyclopropanecarboxylic acid 4-[3-chloro-2-(2-methyl-2H-tetrazol-5-yl)-indol-1-yl]-2-fluorobenzylamide], the Ki in assay [1] (setting [3]) was under 20 nM. Moreover, the IC50 in assay [2] (setting [4]) was under 20 nM.

Consider `Cc1nc(-c2c(Cl)c3cc(F)ccc3n2-c2ccc(CNC(=O)C3(NC(=O)C(F)(F)F)CC3)cc2)no1` [Example 189, 1-(2,2,2-Trifluoro-acetylamino)-cyclopropanecarboxylic acid 4-[3-chloro-5-fluoro-2-(5-methyl-[1,2,4]oxadiazol-3-yl)-indol-1-yl]-benzylamide], for which the Ki in assay [1] (setting [3]) is under 20 nM. The IC50 in assay [2] (setting [4]) is under 20 nM.

Consider `CCCN1C(=O)[C@H](NC(=O)Nc2ccc(N3CCC(N4CCCCC4)CC3)cc2)N=C(c2ccc(C)cc2)c2ccccc21` [N-[4-(,4′-bipiperidin)-1′-ylphenyl]-N′-[(3R)-2,3-dihydro-5-(4-methyl-phenyl)-2-oxo-1-propyl-1H-1,4-benzodiazepin-3-yl]-urea, reference compound], for which the Ki in assay [1] (reference compounds, binding test, measured by the applicant, read-out: Ki) is 13.4 nM. The IC50 in assay [2] (reference compounds, functional test, measured by the applicant, read-out: IC50) worked out at 64.5 nM.

On to `COc1ccc2c(c1)cc(-c1nc(C)no1)n2-c1ccc(CNC(=O)C2(NC(=O)c3cccnc3F)CC2)cc1` [Example 116, 2-Fluoro-N-(1-{4-[5-methoxy-2-(3-methyl-[1,2,4]oxadiazol-5-yl)-indol-1-yl]-benzylcarbamoyl}-cyclopropyl)-nicotinamide], for which the Ki in assay [1] (setting [3]) lay within 20 to 100 nM. Also, the IC50 in assay [2] (setting [4]) is 20 to 100 nM.

For `COc1cc(C(=O)NC2(C(=O)NCc3ccc(-n4c(-c5nnc(C)o5)c(Cl)c5ccccc54)cc3)CC2)on1` [Example 5, 3-Methoxy-N-[1-({4-[3-chloro-2-(5-methyl-1,3,4-oxadiazol-2-yl)-1H-indol-1-yl]benzyl}carbamoyl)cyclopropyl]isoxazole-5-carboxamide], in assay [1] (setting [3]), the Ki is under 20 nM. For the same compound, the IC50 in assay [2] (setting [4]) was under 20 nM.

With `Cc1cc(C(=O)NC2(C(=O)NCc3ccc(-n4c(-c5noc(C)n5)c(Cl)c5ccccc54)cc3)CC2)no1` [Example 135, 5-Methyl-isoxazole-3-carboxylic acid (1-{4-[3-chloro-2-(5-methyl-[1,2,4]oxadiazol-3-yl)-indol-1-yl]-benzylcarbamoyl}-cyclopropyl)-amide], the Ki in assay [1] (setting [3]) is under 20 nM. For the same compound, the IC50 in assay [2] (setting [4]) fell in the range of 20 to 100 nM.

For `COc1ccc2c(c1)c(Cl)c(-c1noc(C)n1)n2-c1ccc(CNC(=O)C2(NC(=O)c3cncc(C(F)(F)F)c3)CC2)cc1` [Example 130, N-(1-{4-[3-Chloro-5-methoxy-2-(5-methyl-[1,2,4]oxadiazol-3-yl)-indol-1-yl]-benzylcarbamoyl}-cyclopropyl)-5-trifluoromethyl-nicotinamide], the Ki in assay [1] (setting [3]) was under 20 nM. In addition, in assay [2] (setting [4]), the IC50 was under 20 nM.

For `COc1cc(C(=O)NC2(C(=O)NCc3ccc(-n4c(-c5noc(C)n5)c(Cl)c5ccccc54)cc3F)CC2)on1` [Example 192, 3-Methoxy-isoxazole-5-carboxylic acid (1-{4-[3-chloro-2-(5-methyl-[1,2,4]oxadiazol-3-yl)-indol-1-yl]-2-fluoro-benzylcarbamoyl}-cyclopropyl)-amide], the Ki in assay [1] (setting [3]) is under 20 nM. The IC50 in assay [2] (setting [4]) was under 20 nM.
